Measurements from ChEMBL document CHEMBL1122030, “2-Arylpyrazolo[4,3-c]quinolin-3-ones: novel agonist, partial agonist, and antagonist of benzodiazepines” (J Med Chem, 1982).
pIC50: −log10 of the molar value. Several values for one entry are separate records, joined by “and”; a condition that tells them apart may be missing. Equal values may be shown once.

Tests used:
[1] = test system: Rattus norvegicus; experiment: Antianxiety effect was assessed by the cook-davidson behavior test at 30 mg/kg of compound administered perorally.; assay type: functional; settings: route oral
[2] = test system: Rattus norvegicus; experiment: Antianxiety effect in cook-davidson behavior test at 30 mg/kg of compound administered perorally in rats expressed as mean percent change; assay type: functional; settings: route oral
[3] = test system: Rattus norvegicus; experiment: Anticonvulsant efficacy when administered perorally was determined in rat metrazole anticonvulsant test; assay type: functional; settings: po
[4] = test system: Rattus norvegicus; experiment: Antianxiety effect in cook-davidson behavior test at 10 mg/kg of compound administered perorally in rats expressed as mean percent change; assay type: functional; settings: route oral
[5] = test system: Rattus norvegicus; experiment: Antianxiety effect in cook-davidson behavior test at 3 mg/kg of compound administered perorally in rats expressed as mean percent change; assay type: functional; settings: route oral
[6] = species on record: Rattus norvegicus; experiment: Antianxiety effect was assessed by the cook-davidson behavior test; assay type: functional
[7] = target: T1, GABA-A receptor; anion channel (Rattus norvegicus) (UniProt O09028+P15431+P18506+P18508+P19969+P20236+P23574+P23576+P28471+P28473+P30191+P62813+P63079+P63138+Q91ZM7+Q9ES14)
Description: (§2) In vivo inhibition of binding to GABA-A central benzodiazepine-receptor after po administration in rats

[8] = test system: Rattus norvegicus; experiment: Antianxiety effect in cook-davidson behavior test at 1 mg/kg of compound administered perorally in rats expressed as mean percent change; assay type: functional; settings: route oral
[9] = test system: Rattus norvegicus; experiment: Antianxiety effect was assessed by the cook-davidson behavior test at 3 mg/kg of compound administered perorally.; assay type: functional; settings: route oral
[10] = test system: Rattus norvegicus; experiment: Antianxiety effect was assessed by the cook-davidson behavior test at 10 mg/kg of compound administered perorally.; assay type: functional; settings: route oral
[11] = test system: Rattus norvegicus; experiment: Antianxiety effect was assessed by the cook-davidson behavior test at 1 mg/kg of compound administered perorally.; assay type: functional; settings: route oral
[12] = target: T1, GABA-A receptor; anion channel (Rattus norvegicus); remark: listed apart in the source
Description: In vivo inhibition of binding to GABA-A central benzodiazepine-receptor after ip administration in rats

[13] = target: GABA-A receptor; anion channel; experiment: In vitro inhibition of binding to GABA-A central benzodiazepine-receptor of rat brain
[14] = test system: Rattus norvegicus; experiment: (§1) Effect on anti-convulsive 5.4 mg/kg Diazepam peroral dose in rats given 24 mg/kg iv metrazol, number of rats protected (of 6); assay type: functional
[15] = target: T1, GABA-A receptor; anion channel (Rattus norvegicus); remark: listed apart in the source
Description: as §2

[16] = test system: Rattus norvegicus; experiment: as §1; assay type: functional; remark: listed apart in the source
[17] = test system: Rattus norvegicus; experiment: as §1; assay type: functional; remark: listed apart in the source
[18] = test system: Rattus norvegicus; experiment: as §1; assay type: functional; remark: listed apart in the source
[19] = test system: Rattus norvegicus; experiment: Anticonvulsant efficacy when administered perorally was determined in rat metrazole anticonvulsant test; Calculated from responses at 1,3 and 10 mg/kg doses; assay type: functional; settings: route oral

| SMILES | FR10 treated [1] | VI30 [2] [%] | ED50 [3] [mg/kg] | VI30 [4] [%] | VI30 [5] [%] | FR10 control [6] | ID50 [7] [mg/kg] | VI30 [8] [%] | FR10 treated [9] | FR10 treated [10] | FR10 treated [11] | ID50 [12] [mg/kg] | pIC50 [13] | No. of animals protected [14] | ID50 [15] [mg/kg] | No. of animals protected [16] | No. of animals protected [17] | No. of animals protected [18] | ED50 [19] [mg/kg] |
| --- | --- | --- | --- | --- | --- | --- | --- | --- | --- | --- | --- | --- | --- | --- | --- | --- | --- | --- | --- |
| CN1C(=O)CN=C(c2ccccc2)c2cc(Cl)ccc21 [DIAZEPAM] | 240 | -23.8 | 4 | 3.6 | 6.1 | 82 and 85 and 63 and 76 | 5 | 5.9 | 131 | 206 | 97 |  |  |  |  |  |  |  |  |
| O=C1C2C=Nc3ccccc3C2=NN1c1ccc(Cl)cc1 (stereo not given) [CGS-9896] |  | 7.5 | 0.9 | 18.2 | 10.2 | 67 and 112 and 81 and 73 |  | 0.1 | 234 | 230 | 217 | 3.3 | 9.22 |  |  |  |  |  |  |
| O=C1C2C=Nc3ccccc3C2=NN1c1ccccc1 (stereo not given) [CGS-8216] |  |  |  |  |  |  |  | 0.1 |  |  | 87 |  | 9.40 | 1 | 7.06 | 5 | 0 | 0 |  |
| COc1ccc(-n2nc3c4ccccc4[nH]cc-3c2=O)cc1 |  |  |  | 5.7 | 7.8 | 61 and 65 and 50 |  | 6.5 | 124 | 100 | 98 |  | 10.00 |  |  | 4 |  |  | 2.81 |
